Test results from patent US9878054B2, “Polypeptide and lipophilic moiety conjugate compositions, formulations, and uses related thereto” (Tufts Medical Center, Inc., priority 2012, dated 2018).

Tests used:
[1] = system: guinea pig carotid artery thrombosis; experiment: Guinea pig carotid artery FeCl3 injury arterial thrombosis model; format: in vivo; details: sub-therapeutic dose alone (PZ-128 0.05 mg/kg; clopidogrel 1 mg/kg PO)
Method: A carotid artery FeCl3 injury model was used in guinea pigs to assess the anti-thrombotic efficacy of PZ-128 micelles within 15 min of initiation of drug administration. FeCl3 denudes the artery and exposes type I collagen and other subendothelial matrix proteins to initiate platelet-dependent thrombosis. Guinea pigs received 10 min intravenous infusions of PZ-128 micelles, 5 min prior to carotid artery injury. […] Mean occlusion times increased by 4-fold to 40 min at doses above 0.05 mg/kg PZ-128.
Male Hartley guinea pigs (150˜220 g) were purchased from Charles River Laboratories. A 0.61 mm-diameter catheter was inserted into the left jugular vein of anesthetized animals for administration of infusions of 5% USP dextrose vehicle or PZ-128 micelles. A 0.5 V-Doppler probe (Transonic Systems, Ithaca, N.Y.) was placed around the right carotid artery to record blood flow. A range of doses of PZ-128 micelles from 0.05 to 1.6 mg/kg in 0.9 ml volumes were delivered at an injection rate of 0.09 ml/min by a Harvard syringe pump. Five minutes after the infusion ended, arterial thrombosis was induced by placing a 5×5 mm^2 piece of filter paper soaked in freshly made 20% FeCl3 solution on the right carotid artery 5 mm distal to the probe for 20 minutes. […] To examine possible synergistic effects of PZ-128 micelles and P2Y12-ADP receptor inhibition, 1 mg/kg clopidogrel was administered by oral gavage 4 hours prior to FeCl3 injury. In these synergy experiments, the maximum endpoint was set at 90 minutes for occlusion time.

human whole blood = experiment: Activated clotting time (ACT) of blood from PCI patients; details: iv 0.75 mg/kg bolus then 1.75 mg/kg/hr, 30 min
Method: PZ-128 (χ) was spiked at various concentrations (0-150 μM) into fresh whole blood obtained from patients just prior to PCI. By comparison, blood was obtained at the 30 min time point from PCI patients (n=22) after a weight-adjusted dosage of bivalirudin (•) administered intravenously as a 0.75 mg/kg bolus followed by continuous infusion of 1.75 mg/kg/hr during the procedure. ACT assays were performed immediately using a Hemochron 801 with FTCA510-4 ACT cartridges containing silica, phospholipids, and diatomaceous earth (kaolin). The open circle represents the mean (±SD) ACT and mean bivalirudin concentration at the 30 min time point in the 22 PCI patients.
The effects of PZ-128 micelles were measured on activated clotting time (ACT) in human blood samples freshly obtained from adult patients undergoing PCI. At concentrations of PZ-128 up to 150 μM, there were no effects on ACT in the human PCI blood samples (FIG. 5).
Adult outpatients with angina referred for coronary angiography or PCI were enrolled in the Tufts Medical Center Adult Cardiac Catheterization Laboratory. Blood was collected prior to PCI or angiography and PZ-128 micelles were spiked into 1 ml samples of whole blood at a range of final concentrations (0-150 μmol/L). ACT was measured immediately in duplicate. […] Bivalirudin concentrations in plasma were measured by LC/MS/MS.

PAR1 = details: read-out: EC50, activation of guinea pig platelets; PRP from vehicle-treated guinea pigs
[2] = cited from earlier work
[3] = system: human platelets (thrombin); experiment: Thrombin-induced aggregation of human platelets; format: cell-based; details: 3 μM compound
Method: A, Depiction of the mechanism of action of the cell-penetrating PZ-128 pepducin compound targeting the third intracellular loop (red) of PAR1. B, The NMR structure of PZ-128 was determined by simulated annealing methods using 210 distance restraints and included restraints to the proximal 3 hydrocarbons of the lipid. […] D, PZ-128 inhibits PAR1-dependent platelet aggregation. Gel filtered human platelets were treated with various concentrations of PZ-128 and then challenged with the PAR1 agonist SFLLRN (2.5 μM), 20 μM ADP, 200 μM AYPGKF or 1 mg/ml Ristocetin. E, Human platelets were treated with 3 μM PZ-128, 3 μM RWJ-56110, or 5% dextrose vehicle before the addition of various concentrations of thrombin (n=3-5).
PZ-128 also markedly right-shifted thrombin-induced aggregation by 5-fold. By comparison, the small molecule RWJ-56110 which antagonizes PAR1 at the extracellular ligand-binding site gave a 2-fold right shift in the thrombin activation curve of human platelets.
Whole blood from healthy donors was collected into a 30 ml syringe containing sodium citrate (0.4% vol/vol final). Platelets were isolated from platelet rich plasma (PRP) using Sepharose 2B columns in modified PIPES buffer.

Molecule: COC(=O)[C@H](c1ccccc1Cl)N1CCc2sccc2C1 [clopidogrel, reference compound]
- Protection against arterial occlusion when used alone [1]: non-significant protection

Molecule: CC[C@H](C)[C@H](NC(=O)[C@H](CCC(=O)O)NC(=O)[C@H](CCC(=O)O)NC(=O)[C@H](Cc1ccccc1)NC(=O)[C@H](CC(=O)O)NC(=O)CNC(=O)[C@H](CC(N)=O)NC(=O)CNC(=O)CNC(=O)CNC(=O)CNC(=O)[C@@H]1CCCN1C(=O)[C@H](CCCNC(=N)N)NC(=O)[C@@H]1CCCN1C(=O)[C@H](N)Cc1ccccc1)C(=O)N1CCC[C@H]1C(=O)N[C@@H](CCC(=O)O)C(=O)N[C@@H](CCC(=O)O)C(=O)N[C@@H](Cc1ccc(O)cc1)C(=O)N[C@@H](CC(C)C)C(=O)O [bivalirudin]
- Activated clotting time (ACT) (human whole blood): highly elevated

Molecule: SFLLRN
- EC50 (PAR1): 2.5 µM

Molecule: CCOC(=O)N[C@@H]1CC[C@@H]2[C@@H](C1)C[C@H]1C(=O)O[C@H](C)[C@H]1[C@H]2/C=C/c1ccc(-c2cccc(F)c2)cn1 [vorapaxar]
- Pharmacodynamic (PD) half-life ([2]; oral administration): up to 3 weeks
- Plasma half-life ([2]; single loading dose): 120 to 264 h

Molecule: NCC[C@H](NC(=O)[C@H](Cc1ccc(F)c(F)c1)NC(=O)Nc1ccc2c(CN3CCCC3)cn(Cc3c(Cl)cccc3Cl)c2c1)C(=O)NCc1ccccc1 [RWJ-56110, reference compound]
- Right shift of thrombin-induced aggregation curve [3]: 2 fold
